Several values for one entry are separate records, joined by “and”; a condition that tells them apart may be missing. Identical values can stand only once.
Columns and labels:
Type in all cases: cell-based
[1] = test system: Escherichia coli (10536 strain); assay: Example 1: 15 second contact-time bacterial kill assay (microtitre plate, D/E quench, TSA plate count); MBC and FBC analysis; details: lowest concentration of the single active giving zero bacterial survival after 15 seconds; upper boundary
Experimental: The efficacies of antimicrobial agents can be usefully compared by determining the Minimum Biocidal Concentration (MBC). The MBC is defined as the lowest absolute concentration of the particular active that provides complete kill (zero bacterial growth).
1 ml of this overnight E. coli culture was transferred to 50 ml of fresh TSB broth and incubated at 37° C. at 150 rpm for ca. 4 hours. This culture was separated into equal volumes and centrifuged at 4000 rpm for 15 minutes, washed with sterile saline (0.85% NaCl), centrifuged once more and re-suspended in saline to give a final concentration of 0.8 OD620 equivalent to about 10^8 cells per millilitre for this particular organism. Here, OD620 indicates the absorbance of a sample in a cuvette of 1.0 cm path length at a wavelength of 620 nm. This bacterial stock was used for assaying against antimicrobial actives (in triplicate).
The following assay describes the testing of 8 materials using 6 dilutions across half of a 96-well micro titre plate (MTP). Using this approach it is possible to assay 16 actives (without replicates) with one full dilution plate, replicating this set up in two halves of the plate columns, 1-6 and 7-12.
This MTP was labelled as the “Screening plate”.
In another MTP, labelled as the “Dilution plate”, 270 μl of D/E neutralising solution from DIFCO Composition was added to column 1. The composition of the neutralising solution was as follows: pancreatic digest of casein, 5.0 g/L; Yeast Extract, 2.5 g/L; Dextrose, 10 g/L, sodium thioglycollate, 1.0 g/L, sodium thiosulphate, 6.0 g/L; sodium bisulphite, 2.5 g/L; Polysorbate 80, 5.0 g/L; lecithin 7.0 g/L; bromocresol purple, 0.02 g/L with a pH in the range 7.6±0.2.
270 μl of tryptone diluent solution was added to all the remaining wells of the Dilution MTP (columns 2-6).
After exactly 5 minutes in the D/E neutralising solution, 30 μl volumes were transferred from column 1 to column 2 of the Dilution MTP and mixed, before transferring further 30 μl volumes from column 2 into column 3. […]

[2] = test system: Escherichia coli (E. coli ATCC #10536); assay: Example 2: high resolution MBC synergy assay in phosphate buffer containing 35% dipropylene glycol, 15 seconds; details: for ΣFBC: calculated for the Ca/Cb pair, 1.00 for a component alone; for MBC of component alone (MBCA thymol, MBCB acyclic terpene alcohol): complete kill in 15 seconds, phosphate buffer with 35% DPG, about 1×10^8 bacteria per mL
Experimental: In this Example, a wide range of combinations of chemicals was tested by conducting high resolution MBC assays of selected acyclic terpene alcohols in the presence of various concentrations of thymol. The materials were sourced in the same way as for Example 1. Synergy tests were conducted using standard microtiter plate assays with phosphate buffer containing 35% dipropylene glycol (DPG). […] The MBC plate was inoculated one column at a time with the test microorganism. An aliquot of the inoculated well was transferred at 15 seconds to a plate containing a neutralizing agent (DIE Neutralizing Broth), mixed and held for 5 minutes before being transferred to a growth plate containing trypticase soy broth (TSB). The TSB plate was incubated at 37° C. and read for the presence/absence of growth at 24 hours. […] This microorganism is representative of natural contaminants in many consumer and industrial applications. […] The tables show the specific combinations of two components: results against the microorganism tested: the end-point activity in weight % measured by the MBC for the first component alone (thymol, MBCA), for the second component alone (acyclic terpene alcohol, MBCB), for the first component in the mixture (Ca) and for the second component in the mixture (Cb); the calculated ΣFBC value; and the range of synergistic ratios for each combination tested (first component t second component or A/B) against the particular microorganism.

[3] = test system: Escherichia coli (E. coli—ATCC #10536); assay: Example 3: automated assessment of efficacy in surfactant base (2.85% sodium cocoyl glycinate + 1.85% sodium lauroamphoacetate, pH 10), 15 seconds exposure, DeltaOD read-out; details: for MBC: in 2.85% sodium cocoyl glycinate + 1.85% sodium lauroamphoacetate solution at pH 10, 15 seconds; for 15 second bactericidal efficacy in combination with thymol (in words): in combination with thymol at concentrations lower than their MBC in the same surfactant formulation
Experimental: In these examples, the efficacy of combinations of thymol and acyclic terpene alcohols were tested in a surfactant cleansing formulation comprising 2.85% sodium cocoyl glycinate and 1.85% sodium lauroamphoacetate. […] Solutions were prepared such that the concentrations of the surfactant components and test actives were 1.1 times the final desired concentration in order to allow for dilution with the bacterial inoculum in the test. […] Solutions of the thymol and/or acyclic terpene alcohols were prepared at a maximum of 24 hours before testing. […] Tests were conducted using standard microtiter plate assays using an automated liquid handling system. 270 μl of the surfactant test solution was pipetted into each well of the microtitre plate (Nunc F Gamma irradiated 96F untreated microtitre plates of clear polystyrene) and 30 μl of the bacterial suspension was then added. After exactly 15 seconds of bacterial exposure, a 30 μl volume of bacterial cells was withdrawn and transferred to 270 μl of D/E quench solution. […] These provide a dual check of antimicrobial activity, as the OD450 reading is specific for the yellow colour of DIE quench when bacterial growth is observed, whereas OD590 is specific for the initial purple colour of the D/E quench which is retained if no bacterial growth is observed. […] Bacterial growth is observed as an increase in OD450 and a decrease in OD590. […] Four replicate measurements in the same plate have been made for each test system. The number of replicate wells showing either bacterial growth or no growth is also readily assessed by eye by following the colour change. Thymol and terpineol were tested both alone and in combination for comparison purposes.

With `CC1=CCC(C(C)(C)O)CC1` (stereo not drawn) [alpha-terpineol, reference compound] the “MBC (minimum biocidal concentration)” value [1] was 0.4 % w/v.
In the case of `CC(C)=CCC/C(C)=C\CO` [nerol, (Z)-3,7-dimethylocta-2,6-dien-1-ol], the ΣFBC [2] is reported as 1.00 and the “MBC of component alone (MBCA thymol, MBCB acyclic terpene alcohol)” value (shortened to “MBC of component alone”) [2] is reported as 0.5 weight %.
In the case of `C=C[C@@](C)(O)CCC=C(C)C` [(−)-linalool, (S)-3,7-dimethylocta-1,6-dien-3-ol], the “MBC (minimum biocidal concentration)” value [1] is reported as 0.4 % w/v.
For `C=CC(C)(O)CCC=C(C)C` (racemic) [(+/−)-linalool, 3,7-dimethylocta-1,6-dien-3-ol], the “MBC (minimum biocidal concentration)” value [1] was 0.4 % w/v, the ΣFBC [2] was 1.00 and the “MBC of component alone” value [2] was 0.5 weight %. For the same compound, the MBC [3] was over 0.5 % w/v and the “15 second bactericidal efficacy in combination with thymol (in words)” value [3] was “complete kill”.
With `CC(C)=CCC/C(C)=C/CO` [geraniol, (E)-3,7-dimethylocta-2,6-dien-1-ol] the ΣFBC [2] was 1.00, the “MBC of component alone” value [2] was 0.3 weight % and the MBC [3] was >0.5 % w/v and 0.5 % w/v. For the same compound, the “15 second bactericidal efficacy in combination with thymol (in words)” value [3] was “complete kill”.
With `Cc1ccc(C(C)C)c(O)c1` [thymol, 2-isopropyl-5-methylphenol] the ΣFBC [2] was 1.00, the “MBC of component alone” value [2] was 0.5 weight % and 0.4 weight % and the MBC [3] was 0.2 % w/v.
